Where two headings read alike, the source gives them in different places.
Columns and labels:
[1] = target: T1, FKBP12 (Homo sapiens, UniProt P62942); test: competitive fluorescence polarization assay, binding to FKBP12; details: competitive FP assay
[2] = target: T2, BRD4^BD2 (Homo sapiens, UniProt O60885); test: competitive fluorescence polarization assay, BRD4 BD2 -/+ presenter protein; format: binding; details: for α BRD4^BD2 (binding cooperativity factor): ratio of binding in absence or presence of FKBP12
T2 construct: to the isolated BD1 and BD2 domains of BRD2, BRD3 and BRD4

[3] = target: BRD4 43-463 (Homo sapiens, UniProt O60885); test: competitive FP assay, BRD4 tandem bromo domain construct; format: binding
[4] = target: BRD4 43-463 Y390A (Homo sapiens, UniProt O60885, Y390A); test: competitive FP assay, BRD4 tandem construct Y390A; format: binding
[5] = tested on: BRD4 43-463 Y390A; test: competitive FP assay, BRD4 tandem construct Y390A; format: binding
[6] = target: BRD4 43-463 Y97A (Homo sapiens, UniProt O60885, Y97A); test: competitive FP assay, BRD4 tandem construct Y97A; format: binding
[7] = tested on: BRD4 43-463 Y97A; test: competitive FP assay, BRD4 tandem construct Y97A; format: binding
[8] = target: T3, BRD2BD1 (Homo sapiens, UniProt P25440); test: competitive FP assay, BRD2 BD1 -/+ FKBP12; format: binding
T3 construct: to the isolated BD1 and BD2 domains of BRD2, BRD3 and BRD4

[9] = target: BRD2BD2 (Homo sapiens, UniProt P25440); test: competitive FP assay, BRD2 BD2 -/+ FKBP12; format: binding
[10] = target: T4, BRD3BD1 (Homo sapiens, UniProt Q15059); test: competitive FP assay, BRD3 BD1 -/+ FKBP12; format: binding
T4 construct: to the isolated BD1 and BD2 domains of BRD2, BRD3 and BRD4

[11] = target: T5, BRD3BD2 (Homo sapiens, UniProt Q15059); test: competitive FP assay, BRD3 BD2 -/+ FKBP12; format: binding
T5 construct: to the isolated BD1 and BD2 domains of BRD2, BRD3 and BRD4

[12] = target: T6, His-BRD4^BD1 + eGFP-FKBP12 (Homo sapiens, UniProt O60885+P62942); test: HTRF ternary complex formation BRD4 BD1 + EGFP-FKBP12; format: binding; details: eGFP-FKBP12 5 µM, His-BRD4^BD1 100 nM; read-out: HTRF BRD4^BD1 + GFP-FKBP12 Kd
T6 construct: the His6-tag of the respective BD1 or BD2 domain of BRD4 and EGFP-labeled FKBP12

[13] = target: T7, His-BRD4^BD2 + eGFP-FKBP12 (Homo sapiens, UniProt O60885+P62942); test: HTRF ternary complex formation BRD4 BD2 + EGFP-FKBP12; format: binding; details: eGFP-FKBP12 5 µM, His-BRD4^BD2 100 nM; read-out: HTRF BRD4^BD2 + GFP-FKBP12 Kd
T7 construct: the His6-tag of the respective BD1 or BD2 domain of BRD4 and EGFP-labeled FKBP12

[14] = target: T1, FKBP12; test: NanoBRET FKBP12 in intact HEK293 cells; format: cell-based
[15] = target: T8, BRD4 (Homo sapiens, UniProt O60885); test: NanoBRET BRD4, transient BRD4-NanoLuc in HEK293T cells; format: cell-based; details: intact HEK293 cells
T8 construct: full-length BRD4 fused to NanoLuc at N terminus; expressed in transfected cells; host or cells: HEK293T
Procedure, shortened: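 BRD4 engagement measured in HEK293T cells transiently expressing N-terminal NanoLuc-BRD4 (20 h), with BRD Tracer-02 at its KD concentration. Cells equilibrated with serially diluted inhibitors for 2 h at 37 °C. Donor 450 nm/acceptor 610 nm BRET read; IC50 from normalized 3-parameter fit.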

[16] = tested on: MV4-11 cells; test: CellTiter-Glo cell viability, MV4-11; format: cell-based, human; details: five days, without FKBP12 PROTAC; for IC50: Homo sapiens, MV4-11, 120 h, read-out: Cell toxicity (MV4-11) - FKBP12 PROTAC IC50
[17] = tested on: INA-6 cells; test: cell viability, INA-6 FKBP12 knockout or NTC; format: cell-based, human; details: for IC50: Homo sapiens, INA-6
[18] = tested on: MYC mRNA; test: quantitative RT-PCR of MYC mRNA, MV4-11; format: cell-based, human; details: Homo sapiens, 6 h; MV4-11, six hours, without FKBP12 PROTAC; read-out: MYC mRNA levels IC50
[19] = 15 µM FKBP51FK1, read-out: Binding to BRD4BD2 + FKBP51FK1 Kd
[20] = absence of FKBP12, 2 nM JQ1-FL tracer, read-out: Binding to BRD4^BD2 - FKBP12 Kd
[21] = absence of FKBP51FK1 (SI Table 3), read-out: Binding to BRD4BD2 - FKBP51FK1 Kd
[22] = presence of 15 µM FKBP12, read-out: Binding to BRD4^BD2 + FKBP12 Kd (converted)
[23] = Binding to BRD4 43-463 + FKBP12 Kd, 15 µM FKBP12
[24] = Binding to BRD4 43-463 - FKBP12 Kd, absence of FKBP12
[25] = Binding to BRD4 43-463 Y390A + FKBP12 Kd, 15 µM FKBP12
[26] = Binding to BRD4 43-463 Y97A + FKBP12 Kd, 15 µM FKBP12
[27] = Binding to BRD4 43-463 Y97A - FKBP12 Kd, absence of FKBP12
[28] = 15 µM FKBP12, read-out: Binding to BRD2BD1 + FKBP12 Kd
[29] = absence of FKBP12, read-out: Binding to BRD2BD1 - FKBP12 Kd
[30] = 15 µM FKBP12, read-out: Binding to BRD2BD2 + FKBP12 Kd
[31] = absence of FKBP12, read-out: Binding to BRD2BD2 - FKBP12 Kd
[32] = 15 µM FKBP12, read-out: Binding to BRD3BD1 + FKBP12 Kd
[33] = absence of FKBP12, read-out: Binding to BRD3BD1 - FKBP12 Kd
[34] = 15 µM FKBP12, read-out: Binding to BRD3BD2 + FKBP12 Kd
[35] = absence of FKBP12, read-out: Binding to BRD3BD2 - FKBP12 Kd
[36] = FKBP12 knockout cells, read-out: Cell toxicity INA-6 FKBP12 KO IC50
[37] = nontargeted control (NTC) cells, read-out: Cell toxicity INA-6 NTC IC50

T5 sequence (Q15059 306-415 limits assumed): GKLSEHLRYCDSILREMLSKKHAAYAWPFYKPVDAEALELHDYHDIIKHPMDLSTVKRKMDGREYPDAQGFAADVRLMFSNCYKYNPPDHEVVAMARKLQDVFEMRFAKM
Chain of BRD2BD2 (P25440 344-453 limits assumed): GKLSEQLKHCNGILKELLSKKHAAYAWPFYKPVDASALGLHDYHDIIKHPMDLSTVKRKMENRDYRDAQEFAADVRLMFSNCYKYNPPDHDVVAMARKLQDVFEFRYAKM
T3 sequence (P25440 74-180 limits assumed): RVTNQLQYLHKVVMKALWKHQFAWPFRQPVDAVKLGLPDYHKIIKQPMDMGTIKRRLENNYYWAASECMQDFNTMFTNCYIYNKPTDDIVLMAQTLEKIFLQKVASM
T4 sequence (Q15059 34-140 limits assumed): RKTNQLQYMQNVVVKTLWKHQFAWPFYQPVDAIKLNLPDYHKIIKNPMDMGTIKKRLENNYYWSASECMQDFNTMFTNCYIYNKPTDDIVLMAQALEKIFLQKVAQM

Cc1sc2c(c1C)C(c1ccc(Cl)cc1)=NC(CC(=O)NCCOCCn1cc(COCC3CN(C(C)c4ccccn4)C(=O)C4CCCC3N4S(=O)(=O)c3cc(Cl)cc(Cl)c3)nn1)c1nnc(C)n1-2 (stereo not drawn) [a1dj]
Kd [1]: 0.4 nM
Kd [2, 19]: 1000 ± 500 nM
Kd [2, 20]: 400 ± 90 nM
Kd [2, 21]: 150 ± 50 nM
Kd [2, 22]: 90 nM
α BRD4^BD2 (binding cooperativity factor) [2]: 4.4
Kd [3, 23]: 31 ± 2 nM
Kd [3, 24]: 266 ± 16 nM
Kd [4, 25]: 9 ± 1 nM
Kd ([4]; absence of FKBP12): 106 ± 7 nM
α BRD4 43-463 Y390A [5]: 12
Kd [6, 26]: 84 ± 10 nM
Kd [6, 27]: 100 ± 17 nM
α BRD4 43-463 Y97A [7]: 1.2
α BRD2BD1 [8]: 16
Kd [8, 28]: 38 ± 6 nM
Kd [8, 29]: 610 ± 90 nM
α BRD2BD2 [9]: 2.9
Kd [9, 30]: 48 ± 17 nM
Kd [9, 31]: 140 ± 65 nM
Kd [10, 32]: 25 ± 3 nM
Kd [10, 33]: 290 ± 35 nM
α BRD3BD2 [11]: 1.1
Kd [11, 34]: 150 ± 30 nM
Kd [11, 35]: 170 ± 50 nM
Kd [12]: 15 ± 3 nM
Kd [13]: 30 ± 7 nM
IC50 [14]: 2.6 nM
IC50 [15]: 653 nM
IC50 [16]: 0.09 nM
Cell toxicity (MV4-11) - FKBP12 PROTAC IC50 [16]: sub-nanomolar
Cell toxicity INA-6 FKBP12 KO IC50 ([17]; FKBP12 knockout cells): hardly observable
IC50 [17, 36]: 480 nM
IC50 [17, 37]: 0.4 nM
Cell toxicity INA-6 NTC IC50 ([17]; nontargeted control (NTC) cells): sub-nanomolar
IC50 [18]: 5 nM

Cc1sc2c(c1C)C(c1ccc(Cl)cc1)=NC(CC(=O)N1CCC3(CC1)CC(n1cc(C4CN(Cc5ccccn5)C(=O)C5CCCC4N5S(=O)(=O)c4cc(Cl)cc(Cl)c4)nn1)C3)c1nnc(C)n1-2 (stereo not drawn) [a13c]
Kd [1]: 1.7 nM
Kd [2, 19]: 190 ± 30 nM
Kd [2, 20]: 2300 ± 400 nM
Kd [2, 21]: 1600 ± 400 nM
Kd [2, 22]: 1900 nM
α BRD4 43-463 [3]: 20
Kd [3, 23]: 39 ± 3 nM
Kd [3, 24]: 790 ± 120 nM
Kd [4, 25]: 15 ± 2 nM
Kd ([4]; absence of FKBP12): 860 ± 140 nM
α BRD4 43-463 Y390A [5]: 57
Kd [6, 26]: 670 ± 90 nM
Kd [6, 27]: 800 ± 110 nM
α BRD4 43-463 Y97A [7]: 1.2
α BRD2BD1 [8]: 34
Kd [8, 28]: 100 ± 14 nM
Kd [8, 29]: 3400 ± 1600 nM
α BRD2BD2 [9]: 1.6
Kd [9, 30]: 600 ± 100 nM
Kd [9, 31]: 960 ± 350 nM
α BRD3BD1 [10]: 46
Kd [10, 32]: 56 ± 5 nM
Kd [10, 33]: 2600 ± 1000 nM
α BRD3BD2 [11]: 0.3
Kd [11, 34]: 3000 ± 350 nM
Kd [11, 35]: 950 ± 100 nM
Kd [12]: 13 ± 2 nM
Kd [13]: 300 ± 30 nM
IC50 [14]: 76 nM
IC50 [15]: 9060 nM
IC50 [16]: 7.7 nM
Cell toxicity INA-6 FKBP12 KO IC50 ([17]; FKBP12 knockout cells): hardly observable
IC50 [17, 36]: > 1600 nM
IC50 [17, 37]: 13 nM
IC50 [18]: 2.8 nM

Cc1sc2c(c1C)C(c1ccc(C#CCNC(=O)COCCn3cc(C4CN(Cc5ccccn5)C(=O)C5CCCC4N5S(=O)(=O)c4cc(Cl)cc(Cl)c4)nn3)cc1)=NC(CC(=O)OC(C)(C)C)c1nnc(C)n1-2 (stereo not drawn) [b3c]
Kd [1]: 3.7 nM
Kd [2, 19]: 250 ± 70 nM
Kd [2, 20]: 150 ± 20 nM
Kd [2, 21]: 120 ± 40 nM
Kd [2, 22]: 13 nM
α BRD4^BD2 (binding cooperativity factor) [2]: 12
α BRD4 43-463 [3]: 5.6
Kd [3, 23]: 14 ± 2 nM
Kd [3, 24]: 79 ± 5 nM
Kd [4, 25]: 1.7 ± 0.5 nM
Kd ([4]; absence of FKBP12): 25 ± 4 nM
α BRD4 43-463 Y390A [5]: 15
Kd [6, 26]: 22 ± 3 nM
Kd [6, 27]: 178 ± 20 nM
α BRD4 43-463 Y97A [7]: 8.1
α BRD2BD1 [8]: 8.2
Kd [8, 28]: 9 ± 4 nM
Kd [8, 29]: 74 ± 20 nM
α BRD2BD2 [9]: 38
Kd [9, 30]: 4 ± 2 nM
Kd [9, 31]: 150 ± 50 nM
α BRD3BD1 [10]: 2.7
Kd [10, 32]: 13 ± 3 nM
Kd [10, 33]: 35 ± 7 nM
α BRD3BD2 [11]: 3.8
Kd [11, 34]: 26 ± 6 nM
Kd [11, 35]: 100 ± 30 nM
Kd [12]: 1 ± 0.6 nM
Kd [13]: 8 ± 3 nM
IC50 [14]: 29 nM
IC50 [15]: 194 nM
IC50 [16]: 0.06 nM
Cell toxicity (MV4-11) - FKBP12 PROTAC IC50 [16]: sub-nanomolar
IC50 [17, 36]: 90 nM
IC50 [17, 37]: 1.8 nM
concentration inducing reduced cell viability in FKBP12-negative cells ([17]; INA-6 FKBP12 knockout): ≥ 100 nM
IC50 [18]: 2 nM

Reference: paper PMC13586308, “Cell type–selective targeting by heterobifunctional protein binders via in-cell enrichment” (Nature Communications, 2026)
